Experimental data reported in US20180050993A1, “NOVEL FLUORINATED DERIVATIVES AS EGFR INHIBITORS USEFUL FOR TREATING CANCERS” (Trillium Therapeutics Inc., priority 2015, published 2018).
Structures can show the parent of a compound that is named as a salt. Where two headings read alike, the source gives them in different places.

Columns and labels:
[1] = Human liver microsomal stability; assay type: in vitro ADME; details: stability in pooled human (50 donors) liver microsomes 0.5 mg/ml, compound 1 μM, parent compound by LC/MS
Experimental: (§1) Working stocks were initially diluted to a concentration of 40.0 μM in 0.1 M potassium phosphate buffer before addition to the reaction vials. Pooled mouse (CD-1, male) or human (50 donors) liver microsomes were utilized at a final concentration of 0.5 mg/ml. Duplicate wells were used for each time point (0 and 30 minutes). Reactions were carried out at 37° C. in a shaker, and the final concentration of DMSO was kept constant at 0.01%. The final volume for each reaction was 100 μL, which includes the addition of an NADPH-Regeneration solution (NRS) mix. This NRS mix is comprised of glucose 6-phosphate dehydrogenase (0.4 U/mL), NADP+ (1.3 mM), MgCl2 (3.3 mM), and glucose 6-phosphate (3.3 mM) in assay mixtures. Upon completion of the 30 minute time point, reactions were terminated by the addition of 1.5-volumes (150 μL) of ice-cold, acetonitrile with 0.5% formic acid and internal standard. Samples were then centrifuged at 4,000 rpm for 10 minutes to remove debris and precipitated protein. Approximately 150 μL of supernatant was subsequently transferred to a new 96 well microplate for LC/MS analysis.
(§2) Narrow-window mass extraction LC/MS analysis was performed for all samples using a Waters Xevo quadrupole time-of-flight (QTof) mass spectrometer and an ACQUITY UPLC system, to determine relative peak areas of parent compound.
(§3) Human and mouse liver microsomes contain a wide variety of drug metabolizing enzymes and are commonly used to support in vitro ADME (absorption, distribution, metabolism and excretion) studies. These microsomes are used to examine the potential first-pass metabolism by-products of orally administered drugs. Representative compounds of the application were evaluated for their stability in human and mouse liver microsomes.

[2] = Mouse liver microsomal stability; assay type: in vitro ADME; details: stability in pooled mouse (CD-1, male) liver microsomes 0.5 mg/ml, compound 1 μM, parent compound by LC/MS, in % (unit assumed)
Experimental: as §1, §2, §3

P-gp = target: T1, P-gp (Homo sapiens, UniProt P08183); assay: Evaluation of P-gp efflux in Caco-2 cell monolayers; assay type: in vitro ADME;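 further: Caco-2 monolayers dosed apically or basolaterally with test compound at 5 µM in HBSS with HEPES and glucose, 37 °C, donor and receiver sampled after 120 min, LC/MS peak areas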
T1 construct: host or cells: Caco-2 (C2BBe1)
T1 sequence (P08183 whole entry): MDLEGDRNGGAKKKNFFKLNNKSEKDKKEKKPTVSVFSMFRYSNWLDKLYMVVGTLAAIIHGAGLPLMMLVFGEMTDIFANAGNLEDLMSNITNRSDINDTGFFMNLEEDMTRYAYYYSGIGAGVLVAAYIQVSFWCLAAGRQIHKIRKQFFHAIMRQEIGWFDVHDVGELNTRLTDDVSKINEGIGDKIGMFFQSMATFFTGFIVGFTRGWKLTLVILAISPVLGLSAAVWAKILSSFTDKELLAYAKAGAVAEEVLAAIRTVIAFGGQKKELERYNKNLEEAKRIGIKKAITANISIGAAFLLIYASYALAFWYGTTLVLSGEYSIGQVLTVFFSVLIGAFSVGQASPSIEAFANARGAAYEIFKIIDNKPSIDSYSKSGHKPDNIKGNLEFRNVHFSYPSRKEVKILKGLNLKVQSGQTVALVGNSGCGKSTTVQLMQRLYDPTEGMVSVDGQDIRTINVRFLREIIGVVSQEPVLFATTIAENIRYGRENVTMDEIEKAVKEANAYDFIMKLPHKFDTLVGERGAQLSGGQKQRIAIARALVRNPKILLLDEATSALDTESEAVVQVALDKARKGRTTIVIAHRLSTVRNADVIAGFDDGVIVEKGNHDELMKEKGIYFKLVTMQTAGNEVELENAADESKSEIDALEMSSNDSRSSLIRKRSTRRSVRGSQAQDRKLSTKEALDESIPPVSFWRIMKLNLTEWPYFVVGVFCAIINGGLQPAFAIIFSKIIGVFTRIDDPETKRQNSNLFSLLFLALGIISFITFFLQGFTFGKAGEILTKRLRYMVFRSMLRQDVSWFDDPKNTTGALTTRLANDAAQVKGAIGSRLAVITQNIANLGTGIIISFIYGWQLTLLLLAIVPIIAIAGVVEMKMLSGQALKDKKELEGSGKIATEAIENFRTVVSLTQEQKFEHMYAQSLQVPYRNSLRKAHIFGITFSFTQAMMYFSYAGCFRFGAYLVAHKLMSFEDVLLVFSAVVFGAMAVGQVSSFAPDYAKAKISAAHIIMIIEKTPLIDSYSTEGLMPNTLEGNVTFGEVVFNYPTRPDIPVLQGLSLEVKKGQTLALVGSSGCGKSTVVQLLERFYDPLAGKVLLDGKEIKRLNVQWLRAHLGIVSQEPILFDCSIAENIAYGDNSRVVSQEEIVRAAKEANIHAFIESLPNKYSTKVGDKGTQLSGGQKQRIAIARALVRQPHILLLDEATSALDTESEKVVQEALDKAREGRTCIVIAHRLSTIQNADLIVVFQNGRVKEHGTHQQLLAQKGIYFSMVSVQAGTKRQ

[3] = Brain concentrations after PO administration in rat, peak at 8 hours (Table 5); assay type: in vivo; details: brain, PO 50 mg/kg, Table 5 (8 hours)
[4] = Caco-2, pH 7.4, with none (verapamil 0 μM), Caco-2, Verapamil 0 μM, read-out: Recovery (%) AP-BL
[5] = Caco-2, pH 7.4, with none (verapamil 0 μM), Caco-2, Verapamil 0 μM, read-out: Recovery (%) BL-AP
[6] = Caco-2, pH 7.4, with verapamil 100 μM, Caco-2, Verapamil 100 μM, read-out: Recovery (%) AP-BL
[7] = Caco-2, pH 7.4, with verapamil 100 μM, Caco-2, Verapamil 100 μM, read-out: Recovery (%) BL-AP

| HLM (30 min) [1] [%] | MLM (30 min) [2] | Structure (SMILES) | further results |
| --- | --- | --- | --- |
| 54.7 | 22.2 | FC(F)OCCOc1cc2ncnc(Nc3ccccc3Cl)c2cc1OCCOC(F)F [2(Dd)] |  |
| 49.2 | 11.8 | FC(F)OCCOc1cc2ncnc(Nc3ccccc3C(F)(F)F)c2cc1OCCOC(F)F [2(Ee), 6,7-bis[2-(difluoromethoxy)ethoxy]-N-[2-(trifluoromethyl)phenyl]quinazolin-4-amine] |  |
| 76.4 | 69.6 | Fc1c(Cl)cccc1Nc1ncnc2cc(OCCOC(F)F)c(OCCOC(F)F)cc12 [2(Ff), N-(3-chloro-2-fluoro-phenyl)-6,7-bis[2-(difluoromethoxy)ethoxy]quinazolin-4-amine] |  |
| 99.8 | 106.2 | FC(F)OCCOc1cc2ncnc(Nc3ccc(C(F)(F)F)cc3)c2cc1OCCOC(F)F [2(Gg), 6,7-bis[2-(difluoromethoxy)ethoxy]-N-[4-(trifluoromethyl)phenyl]quinazolin-4-amine] |  |
| 71.6 | 51.8 | Fc1ccccc1Nc1ncnc2cc(OCCOC(F)F)c(OCCOC(F)F)cc12 [2(Hh), 6,7-bis[2-(difluoromethoxy)ethoxy]-N-(2-fluorophenyl)quinazolin-4-amine] |  |
| 77.6 | 43.7 | Fc1cccc(F)c1Nc1ncnc2cc(OCCOC(F)F)c(OCCOC(F)F)cc12 [2(Kk), 6,7-bis[2-(difluoromethoxy)ethoxy]-N-(2,6-difluorophenyl)quinazolin-4-amine] |  |
| 82.1 | 39.3 | Fc1cc(F)c(Nc2ncnc3cc(OCCOC(F)F)c(OCCOC(F)F)cc23)c(F)c1 [2(Ll), 6,7-bis[2-(difluoromethoxy)ethoxy]-N-(2,4,6-trifluorophenyl)quinazolin-4-amine] |  |
| 90.7 | 72.5 | Fc1c(Nc2ncnc3cc(OCCOC(F)F)c(OCCOC(F)F)cc23)ccc(Cl)c1Cl [2(a), N-(3,4-dichloro-2-fluoro-phenyl)-6,7-bis[2 (difluoromethoxy)ethoxy]quinazolin-4-amine] |  |
| 96.4 | 94.3 | C#Cc1cccc(Nc2ncnc3cc(OCCOC(F)F)c(OCCOC(F)F)cc23)c1 [2(b), 6,7-bis[2-(difluoromethoxy)ethoxy]-N-(3-ethynylphenyl)quinazolin-4-amine] |  |
| 88.5 | 94.6 | Fc1ccc(Nc2ncnc3cc(OCCOC(F)F)c(OCCOC(F)F)cc23)cc1Cl [2(c), N-(3-chloro-4-fluoro-phenyl)-6,7-bis[2-(difluoromethoxy)ethoxy]quinazolin-4-amine] |  |
|  |  | C[C@H]1O[C@@H](O[C@H]2[C@@H](O)C[C@H](O[C@H]3[C@@H](O)C[C@H](O[C@H]4CC[C@@]5(C)[C@H](CC[C@@H]6[C@@H]5C[C@@H](O)[C@]5(C)[C@@H](C7=CC(=O)OC7)CC[C@]65O)C4)O[C@@H]3C)O[C@@H]2C)C[C@H](O)[C@@H]1O [Digoxin] | recovery at 120 min, 5 μM (P-gp; [4]): 76.9%; recovery at 120 min, 5 μM (P-gp; [5]): 84.3%; recovery at 120 min, 5 μM (P-gp; [6]): 90.3%; recovery at 120 min, 5 μM (P-gp; [7]): 99.7%; Papp A→B at 120 min, 5 μM (P-gp; pH 7.4, Caco-2, Verapamil 0 μM): 0.64 ×10⁻⁶ cm/s; Papp B→A at 120 min, 5 μM (P-gp; pH 7.4, Caco-2, Verapamil 0 μM): 15.8 ×10⁻⁶ cm/s |
|  |  | C#Cc1cccc(Nc2ncnc3cc(OCCOC)c(OCCOC)cc23)c1 [Erlotinib•HCl, N-(3-ethynylphenyl)-6,7-bis(2-methoxyethoxy)quinazolin-4-amine] | recovery at 120 min, 5 μM (P-gp; [4]): 55.5%; recovery at 120 min, 5 μM (P-gp; [5]): 56.2%; recovery at 120 min, 5 μM (P-gp; [6]): 76.8%; recovery at 120 min, 5 μM (P-gp; [7]): 58%; Papp A→B at 120 min, 5 μM (P-gp; pH 7.4, Caco-2, Verapamil 0 μM): 16 ×10⁻⁶ cm/s; Papp B→A at 120 min, 5 μM (P-gp; pH 7.4, Caco-2, Verapamil 0 μM): 13.9 ×10⁻⁶ cm/s; Cmax ([3]; Sprague-Dawley): 828 ng/g; Tmax ([3]; Sprague-Dawley): 8 h; AUCInf [3]: 18449 ng·h/g; AUClast [3]: 14522 ng·h/g |
|  |  | CC(C)NCC(O)COc1cccc2ccccc12 (stereo not shown) [Propranolol] | recovery at 120 min, 5 μM (P-gp; [4]): 69.8%; recovery at 120 min, 5 μM (P-gp; [5]): 85%; Papp A→B at 120 min, 5 μM (P-gp; pH 7.4, Caco-2, Verapamil 0 μM): 25.1 ×10⁻⁶ cm/s; Papp B→A at 120 min, 5 μM (P-gp; pH 7.4, Caco-2, Verapamil 0 μM): 16.3 ×10⁻⁶ cm/s; efflux ratio at 120 min, 5 µM (P-gp; pH 7.4, Caco-2, Verapamil 0 μM): 0.65 |

| Structure (SMILES) | HLM (30 min) [1] [%] | MLM (30 min) [2] | further results |
| --- | --- | --- | --- |
| Fc1ccc(Nc2ncnc3cc(OCCOC(F)F)c(OCCOC(F)F)cc23)c(F)c1Cl [2(d), N-(3-chloro-2,4-difluoro-phenyl)-6,7-bis[2-(difluoromethoxy)ethoxy]quinazolin-4-amine] | 83.1 | 90.4 |  |
